According to article PMC3710446 (Journal of pharmaceutical sciences, 2011):

Columns and labels:
[1] = tested on: SOPT2; experiment: Uptake of [3H]DADLE in RGC-5 cells; conditions: DADLE 25 nM, 30 min of incubation
[2] = tested on: SOPT1; experiment: Uptake of [3H]deltorphin II in RGC-5 cells and influence of tripeptides; conditions: RGC-5 cells, deltorphin II 25 nM
[3] = tested on: SOPT2; experiment: Influence of compounds on [3H]DADLE uptake in RGC-5 cells; type: cell-based, rat; conditions: compound 1 mM; for [3H]DADLE uptake in the presence of compound, % of control (Table 2): [3H]DADLE 10 nM, 30 min, control = 100; for stimulation of [3H]DADLE uptake: p < 0.001
[4] = tested on: RGC-5 cells; experiment: Uptake of FITC-labeled HIV-1 Tat47–57 in RGC-5 cells; type: cell-based, rat; conditions: FITC-Tat 25 nM, 15 min, NaCl-containing buffer, confocal microscopy

CC(C)C[C@@H](NC(=O)[C@H](Cc1ccccc1)NC(=O)CNC(=O)[C@@H](C)NC(=O)[C@@H](N)Cc1ccc(O)cc1)C(=O)O [DADLE, [D-Ala^2, D-Leu^5]-Enkephalin]
uptake in the presence of Na+ relative to uptake in the absence of Na+ [1]: 2–3 times

CC(C)[C@H](NC(=O)[C@H](CCC(=O)O)NC(=O)[C@H](Cc1ccccc1)NC(=O)[C@@H](C)NC(=O)[C@@H](N)Cc1ccc(O)cc1)C(=O)N[C@H](C(=O)NCC(N)=O)C(C)C [Deltorphin II]
uptake of deltorphin II ([2]; absence of Na+): 1.1 ± 0.1 pmol/mg of protein/30 min
uptake of deltorphin II ([2]; presence of Na+): 3.6 ± 0.2 pmol/mg of protein/30 min

C=CCN1CC[C@]23c4c5ccc(O)c4O[C@H]2C(=O)CC[C@@]3(O)[C@H]1C5 [Naloxone, naloxone]
[3H]DADLE uptake in the presence of compound, % of control (Table 2) [3]: 133%
stimulation of [3H]DADLE uptake [3]: 33%

O=C1CC[C@@]2(O)[C@H]3Cc4ccc(O)c5c4[C@@]2(CCN3CC2CC2)[C@H]1O5 [Naltrexone, naltrexone]
[3H]DADLE uptake in the presence of compound, % of control (Table 2) [3]: 150%
stimulation of [3H]DADLE uptake [3]: 50%

FITC-Tat47–57: Fluorescein isothiocyanate-conjugated Tat47–57 peptide
cellular uptake of FITC-labeled peptide (cell-associated green fluorescence) [4]: enters RGC-5 cells
